From US20050124963A1, “Method for treating aspects of alcoholism, addiction and psychosis” (priority 2003, published 2005)
Like-named read-outs stand apart in the source and are kept apart here.

What was measured:
D2 receptor = D2 receptor (Homo sapiens, UniProt P14416); conditions: 1-100 nM dopamine, in vitro; cited from earlier work
striatal D2 receptors = target: T1, striatal D2 receptors (Rattus norvegicus, UniProt P61169); assay: [3H]PHNO binding to striatal D2 receptors; conditions: control striata
T1 construct: each rat underwent CO2 narcosis and cervical dislocation; the striata were removed; from tissue; host or cells: rat striatum (male Sprague Dawley)
Procedure: To induce ethanol dependence, rats (male Sprague Dawley, 200 g) received an intraperitoneal injection of 0.9% NaCl or 2 g/kg ethanol twice daily (i.e., 1.4 ml of 18% ethanol [in 0.9% NaCl] per 100 g at 9 AM and again at 3 PM daily) for 10 days (Lindholm et al., Alcohol 22: 165-171, 2000). On different days during the withdrawal period, each rat underwent CO2 narcosis and cervical dislocation; the striata were removed. The frozen (−70° C.) striata were blotted and weighed. […] The binding of [^3H]PHNO (or [+]-4-propyl-9-hydroxynaphthoxazine) (0.1 to 4.5 nM; […]; custom synthesized by New England Nuclear Corp.; non-specific binding defined by 10 μM S-(−)-sulpiride) to striatal D2 receptors was done as reported elsewhere (Seeman et al., Synapse 14: 254-262, 1993; Synapse 46: 235-239, 2002).
To confirm the elevation of D2^High sites by another method, [^3H]PHNO (or [+]-4-propyl-9-hydroxynaphthoxazine), a selective D2 agonist (Seeman et al., Synapse 14: 254-262, 1993) can be used.

[1] = system: high-affinity states of D2; conditions: rats sensitized to amphetamine; cited from earlier work
[2] = target: T2, high-affinity state of dopamine D2 receptor (D2High) (Rattus norvegicus, UniProt P61169); conditions: 7 days withdrawal, [3H]PHNO
[3] = target: T2, high-affinity state of dopamine D2 receptor (D2High)
[4] = system: high-affinity state of dopamine D2 receptor (D2High); format: in vivo, rat
[5] = first eight days after stopping ethanol, [3H]raclopride

T2 sequence (P61169 whole entry): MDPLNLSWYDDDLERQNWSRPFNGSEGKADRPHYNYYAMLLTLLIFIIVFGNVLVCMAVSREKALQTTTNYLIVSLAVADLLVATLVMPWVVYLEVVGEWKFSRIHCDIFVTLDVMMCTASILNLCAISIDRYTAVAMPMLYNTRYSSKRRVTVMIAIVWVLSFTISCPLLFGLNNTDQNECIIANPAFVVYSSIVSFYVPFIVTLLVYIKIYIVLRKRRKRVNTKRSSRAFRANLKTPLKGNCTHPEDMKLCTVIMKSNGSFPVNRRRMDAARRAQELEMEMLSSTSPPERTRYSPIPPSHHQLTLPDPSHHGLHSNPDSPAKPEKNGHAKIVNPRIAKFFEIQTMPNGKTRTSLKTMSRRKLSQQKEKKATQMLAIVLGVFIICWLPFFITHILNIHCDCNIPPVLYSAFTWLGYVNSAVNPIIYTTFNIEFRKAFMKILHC
D2 receptor, sequence (P14416 whole entry): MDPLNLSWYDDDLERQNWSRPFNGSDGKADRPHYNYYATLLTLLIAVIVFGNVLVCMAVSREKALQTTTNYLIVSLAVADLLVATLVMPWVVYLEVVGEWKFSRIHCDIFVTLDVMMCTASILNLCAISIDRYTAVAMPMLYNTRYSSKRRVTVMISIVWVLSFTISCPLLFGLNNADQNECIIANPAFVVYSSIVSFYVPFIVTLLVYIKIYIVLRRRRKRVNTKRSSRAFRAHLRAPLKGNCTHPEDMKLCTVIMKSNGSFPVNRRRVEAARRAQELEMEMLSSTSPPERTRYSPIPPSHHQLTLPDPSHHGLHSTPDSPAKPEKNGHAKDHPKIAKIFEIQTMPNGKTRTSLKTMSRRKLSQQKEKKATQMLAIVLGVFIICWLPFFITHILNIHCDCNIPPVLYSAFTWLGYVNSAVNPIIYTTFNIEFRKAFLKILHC
T1 sequence (P61169 whole entry): as the sequence (P61169 whole entry) above

Compound: CCN1CCC[C@H]1CNC(=O)c1c(O)c(Cl)cc(Cl)c1OC (racemic) [[^3H]raclopride]
- displacement by low concentrations of dopamine (D2 receptor): not significantly displaced

Compound: CCCN1CCOC2c3cc(O)ccc3CCC21 (stereo not drawn) [[^3H]PHNO, [+]-4-propyl-9-hydroxynaphthoxazine]
- Kd (striatal D2 receptors): 0.71 nM

Compound: CC(N)Cc1ccccc1 (stereo not drawn) [amphetamine]
- elevation of high-affinity states of D2 [1]: over 350%

Compound: CCO [ethanol]
- increase of D2High over control value of 2.6 pmol/g [2]: 273%
- D2High ([2]; ethanol-treated striata): 7.1 pmol/g
- duration of elevation of D2High sites after ethanol withdrawal ([3]; before returning to normal): almost two weeks
- D2High sites ([3]; day 15 after stopping ethanol (back to normal)): ≤ 2 pmol/g
- D2High sites ([3]; days 11 and 12 after stopping ethanol): 4.8 pmol/g
- increase in D2High ([3]; ethanol-withdrawn): 3.2 fold
- D2 density ([3]; first eight days after stopping ethanol (2 g/kg i.p. twice daily, 10 days), [3H]raclopride, no guanilylimidodiphosphate): 19 ± 0.8 pmol/g
- D2High density (increase in receptor density with guanilylimidodiphosphate) [3, 5]: 7.2 ± 0.6 pmol/g
- D2 density in the presence of guanilylimidodiphosphate [3, 5]: 26.1 ± 0.8 pmol/g
- increase of D2High over control value of 2 pmol/g ([3]; upon withdrawal of ethanol, [3H]raclopride): 360%

Compound: FC(F)OC(Cl)C(F)(F)F (stereo not drawn) [isoflurane]
- D2High density ([4]; ethanol-treated rats five days into withdrawal, isoflurane one hour (deep stage 3 surgical anesthesia), striata 24 hours later): 1.3 pmol/g
- effect on elevated D2High ([4]; one hour of deep general anesthesia, ethanol-withdrawn rats): restored D2^High to normal
